Laboratory results from patent publication US3933834A, “Unsymmetrical esters of N-substituted 1,4-dihydropyridine 3,5-dicarboxylic acid” (Bayer Aktiengesellschaft, priority 1972, dated 1976).

How the values were obtained:
[1] = toxicity (LD50) measured on mice by peroral administration; conditions: mouse, in vivo, po
[2] = test system: hypertensive rats; experiment: hypotensive activity: blood pressure of hypertensive rats after peroral administration; assay type: in vivo; conditions: Rattus norvegicus, po, read-out: Peroral Dose: lowest dose which results in at least a 15 mm Hg reduction in blood pressure
Text: The hypotensive activity of the present compounds can be observed by measuring the blood pressure of hypertensive rats following administration of the compounds.

[3] = test system: coronary vessels; experiment: coronary vessel dilation: rise in oxygen saturation in the coronary sinus in the narcotized, heart-catheterized dog; assay type: in vivo; conditions: intravenous
Text: They can accordingly be used where either or both of these effects are desired. Thus upon parenteral, oral or sublingual administration, the compounds produce a distinct and long lasting dilation of the coronary vessels which is intensified by a simultaneous nitrite-like effect of reducing the load on the heart. […] The effect on heart metabolism is thus one of energy saving. In addition, the compounds lower the blood pressure of normotonic and hypertonic animals and can thus be used as antihypertensive agents. These properties can be conveniently observed in well known laboratory models. Thus, for example, the coronary vessel dilation effect of the compounds of the invention was compared with the action of Persantin by measuring the rise in oxygen saturation in the coronary sinus in the narcotized, heart-catheterized dog, with the results reported in Table I, below.
^1 Dose given in mg/kg. body weight, administered intravenously;
^2 O2 rise given as % rise in oxygen saturation;
^3 Reversion time given is time in hours for reversion to the initial

Compound: CCOC(=O)C1=C(C)N(C)C(C)=C(C(=O)OC)C1c1cccc([N+](=O)[O-])c1 (centres unmarked) [Example 1, 1,2,6-trimethyl-4-(3'-nitrophenyl)-1,4-dihydropyridine-3,5-dicarboxylic acid 3-methyl-ester-5-ethyl-ester]
- LD50 [1]: 3000 mg/kg
- minimal effective dose [2]: 0.3 mg/kg

Compound: C=CCOC(=O)C1=C(C)N(C)C(C)=C(C(=O)OCC)C1c1ccccc1C#N (centres unmarked) [Example 6, 1,2,6-trimethyl-4-(2'-cyanophenyl)-1,4-dihydropyridine-3,5-dicarboxylic acid 3-ethyl-ester-5-allyl-ester]
- O2 % Rise (rise in oxygen saturation in the coronary sinus) ([3]; 0.05 mg/kg): 39%
- Reversion time (to the initial value) ([3]; 0.05 mg/kg): > 4 h
- minimal effective dose [2]: 0.3 mg/kg

Compound: OCCN(CCO)c1nc(N2CCCCC2)c2nc(N(CCO)CCO)nc(N3CCCCC3)c2n1 [Persantin, reference compound]
- O2 % Rise (rise in oxygen saturation in the coronary sinus) ([3]; 0.3 mg/kg): 23%
- Reversion time (to the initial value) ([3]; 0.3 mg/kg): 1 to 2 h
- O2 % Rise (rise in oxygen saturation in the coronary sinus) ([3]; 0.4 mg/kg): 34%
- Reversion time (to the initial value) ([3]; 0.4 mg/kg): 1 to 2 h

Compound: CCOC(=O)C1=C(C)N(C)C(C)=C(C(=O)OC(C)C)C1c1cccc([N+](=O)[O-])c1 (centres unmarked) [Example 3, 1,2,6-trimethyl-4-(3'-nitrophenyl)-1,4-dihydropyridine-3,5-dicarboxylic acid 3-ethyl-ester-5-isopropyl-ester]
- O2 % Rise (rise in oxygen saturation in the coronary sinus) ([3]; 0.1 mg/kg): 39%
- Reversion time (to the initial value) ([3]; 0.1 mg/kg): > 6 h
- LD50 [1]: 3000 mg/kg
- minimal effective dose [2]: 0.3 mg/kg

Compound: COC(=O)C1=C(C)N(C)C(C)=C(C(=O)OC(C)C)C1c1cccc([N+](=O)[O-])c1 (centres unmarked) [Example 2, 1,2,6-trimethyl-4-(3'-nitrophenyl)-1,4-dihydropyridine-3,5-dicarboxylic acid 3-methyl-ester-5-isopropyl-ester]
- O2 % Rise (rise in oxygen saturation in the coronary sinus) ([3]; 0.01 mg/kg): 31%
- Reversion time (to the initial value) ([3]; 0.01 mg/kg): > 3.5 h
- LD50 [1]: 3000 mg/kg
- minimal effective dose [2]: 1 mg/kg
